According to patent publication US9770423B2, “Modulation sAPP, sAAPα and BDNF levels in individuals diagnosed with FXS and ASD” (Indiana University Research and Technology Corp., priority 2012, dated 2017):

How the values were obtained:
BDNF = test: plasma BDNF by ELISA in the FXS open-label trial; format: in vivo, human
Procedure: Blood samples for BDNF were drawn at Screen and at Week 10 of the study. BDNF analysis was done blind to patient assignment (pre- or post-treatment). Approximately 4 ml of blood was collected in EDTA containing tubes. Within 30 minutes of collection, the blood was centrifuged at 1000 g at 2-8° C. for 15 minutes. Plasma was collected and an additional centrifugation of the collected plasma at 1000 g at 2-8° C. for 10 minutes was done to completely remove platelets from the samples. All plasma samples were stored at −80° C. BDNF assays were done at the same time with all samples in triplicate. To determine plasma BDNF, a sensitive ELISA based method was used using human BDNF ELISA kit from R&D systems (Minneapolis, Minn.; USA) that is validated for detection of BDNF present in human plasma (Grassi-Oliveira et al., 2008). The amount (pg/ml) of BDNF present in the plasma samples was determined from the pg value obtained in the standard curve using a known amount of pure human BDNF, which was run at the same time with subjects' samples.
All data were recorded in IBM SPSS Statistics Professional for statistical analysis. Potential differences in pre- and post-treatment mean values of all outcome measures employed were calculated using paired t-tests. […] Effect sizes were calculated by taking the mean change from baseline to endpoint divided by the standard deviation at baseline.

[1] = tested on: youth with autistic disorder (idiopathic ASD); test: 12-week single-blind placebo lead-in trial of acamprosate in youth with autistic disorder: behavioral outcome measures; format: in vivo, human
Procedure: One study was a 12-week single-blind, placebo-controlled trial of acamprosate in 12 youths with autistic disorder was conducted. The primary outcome measured was the Clinical Global Impression Improvement (CGI-I) scale with several additional behavioral secondary outcome measures employed. In this study, secreted amyloid precursor protein (sAPP) was measured pre- and post acamprosate treatment as blood biomarker assay Result: Twelve subjects (mean age=10.4 yrs.) entered the study and nine subjects completed a two week placebo lead-in and entered active treatment (mean final dose=1,073 mg/day). Six of nine (67%) subjects receiving acamprosate were judged treatment responders with a CGI-I score of 1 “very much improved” or 2 “much improved”. […] Among secondary outcome measures analyzed, significant acamprosate-associated improvement was noted on measures of social behavior and hyperactivity. Acamprosate use was also associated with reductions in sAPP levels.
The first project enrolled 12 youth aged 5 to 17 years with fragile X syndrome and comorbid ASD in a 10-week open-label trial of acamprosate. The second project enrolled 12 youth aged 5 to 17 years diagnosed with idiopathic ASD in a 12-week single-blind placebo lead-in study of acamprosate. In both projects, concomitant dosing of psychotropic drugs remained stable throughout study. In each project, pre- and post-acamprosate treatment plasma levels of sAPP total and sAPPα were obtained. All APP assay samples were collected, chilled, and walked within 2 hours of blood draw to the lab for analysis. Plasma sAPP total and sAPPα were determined in […] using the ELISA kit obtained from Immuno Biological Laboratories (IBL, Gumma, Japan). The ELISA kit is validated to measure levels of sAPPα in human samples and able to detect as low as 0.09 ng/ml of sAPPα in a typical sample, with only 0.3% cross-reactivity to sAPPβ. Levels of sAPP total and sAPPα in plasma were reported in nanograms per milliliter (ng/mL). Statistical analysis of pre- and post-acamprosate sAPP total and sAPPα levels were conducted using paired T-tests. Finally an exploratory post-hoc analysis of potential correlation between percent change in sAPP total or sAPPα and percent change in scores on the Aberrant Behavior Checklist Social Withdrawal/Lethargy subscale (ABC-SW) was conducted. The ABC-SW measures social impairment which is a core symptom domain of ASD. Post-hoc analysis was done with Spearman correlation calculations. All data was analyzed in IBM SPSS Version 20.
A 12-week single-blind, placebo-controlled trial of the effect of acamprosate in the treatment of 12 youths with autistic disorder aged 5 to 17 years was carried out. In order to pilot test use of acamprosate in youth with autism targeting core social impairment, was conducted. All subjects and their family members were blinded to treatment status. All subjects participated in a 2 week placebo-lead-in phase prior to 10 weeks of treatment with acamprosate. For this project, enteric coated commercially available 333 mg acamprosate pills were over-encapsulated and identical matching placebo manufactured for the project. Placebo-responders, defined by a Clinical Global Impressions Improvement scale (CGI-I) score of 1 “very much improved” or 2 “much improved” (ratings anchored to core social deficits) at week 2 were asked to exit the study. During active treatment with acamprosate, dosing was increased in 333 mg increments per week over the first six weeks of active treatment to a maximum dose of 1,332 mg/day (weight<5 60 kg) or 1,998 mg/day (weight>60 kg). During the final four weeks of active drug treatment, subjects were maintained on a stable highest tolerated (optimal) dose. The primary outcome measure was the clinician-rated CGI-I anchored to symptoms of social impairment. […]

CC(=O)NCCCS(=O)(=O)O.[Ca] [acamprosate, Calcium Acetylhomotaurine]
change in plasma BDNF from screen to Week 10 (BDNF; 10 subjects with FXS): All subjects experienced an increase
mean subject plasma BDNF after treatment (BDNF; Week 10, 10 subjects with FXS, screen 790.4±1350.4 pg/mL, p=0.01): 1007.6 ± 1493.2 pg/mL
CGI-S at endpoint ([1]; autistic disorder, baseline 4.22+/-0.4, p=0.013): 3.7+/−0.5
ABC Lethargy/Social Withdrawal subscale (ABC-SW) at endpoint ([1]; autistic disorder, baseline 14.1+/-8.5, p=0.019): 10.0+/−8.4
ABC Hyperactivity subscale at endpoint ([1]; autistic disorder, baseline 25.4+/-12.6, p=0.005): 16.6+/−12.4
ADHD-RS at endpoint ([1]; autistic disorder, baseline 29.5+/-10.4, p=0.002): 20.75+/−9.7
SRS total raw score at endpoint ([1]; autistic disorder, baseline 107+/-28, p=0.002): 91.4+/−30
mean CGI-I at last visit ([1]; nine subjects, last observation carried forward): 2
treatment responders, number of subjects ([1]; of 9 youth with idiopathic ASD): 6
treatment responders (CGI-I score of 1 or 2) ([1]; six of nine subjects receiving acamprosate, autistic disorder, mean final dose 1,073 mg/day): 67%
